Columns and labels:
[1] = biological target: T1, Serine/threonine-protein kinase 17A (Homo sapiens) (UniProt Q9UEE5); experiment: Inhibition of human recombinant DRAK1 at 500 nM in presence of ATP by radiometric assay relative to control
T1 sequence (whole entry): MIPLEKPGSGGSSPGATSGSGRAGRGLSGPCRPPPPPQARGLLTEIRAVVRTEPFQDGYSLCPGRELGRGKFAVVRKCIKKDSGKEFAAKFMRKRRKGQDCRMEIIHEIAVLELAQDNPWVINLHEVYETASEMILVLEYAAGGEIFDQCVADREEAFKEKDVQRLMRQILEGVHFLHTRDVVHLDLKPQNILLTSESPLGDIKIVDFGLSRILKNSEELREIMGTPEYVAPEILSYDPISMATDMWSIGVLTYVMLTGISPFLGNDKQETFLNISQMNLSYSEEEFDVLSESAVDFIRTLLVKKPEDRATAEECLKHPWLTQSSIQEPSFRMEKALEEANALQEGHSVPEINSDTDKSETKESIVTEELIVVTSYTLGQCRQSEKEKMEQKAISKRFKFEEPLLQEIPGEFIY

[2] = biological target: SRSF protein kinase 3 (Homo sapiens) (UniProt Q9UPE1); experiment: Inhibition of human recombinant MSSK1 at 500 nM in presence of ATP by radiometric assay relative to control
[3] = biological target: Myosin light chain kinase, smooth muscle (Homo sapiens) (UniProt Q15746); experiment: Inhibition of human recombinant smMLCK at 15 nM in presence of ATP by radiometric assay relative to control
[4] = biological target: T2, Serine/threonine-protein kinase STK11 (Homo sapiens) (UniProt Q15831); experiment: Inhibition of human recombinant LKB1 at 15 nM in presence of ATP by radiometric assay relative to control
T2 sequence (whole entry): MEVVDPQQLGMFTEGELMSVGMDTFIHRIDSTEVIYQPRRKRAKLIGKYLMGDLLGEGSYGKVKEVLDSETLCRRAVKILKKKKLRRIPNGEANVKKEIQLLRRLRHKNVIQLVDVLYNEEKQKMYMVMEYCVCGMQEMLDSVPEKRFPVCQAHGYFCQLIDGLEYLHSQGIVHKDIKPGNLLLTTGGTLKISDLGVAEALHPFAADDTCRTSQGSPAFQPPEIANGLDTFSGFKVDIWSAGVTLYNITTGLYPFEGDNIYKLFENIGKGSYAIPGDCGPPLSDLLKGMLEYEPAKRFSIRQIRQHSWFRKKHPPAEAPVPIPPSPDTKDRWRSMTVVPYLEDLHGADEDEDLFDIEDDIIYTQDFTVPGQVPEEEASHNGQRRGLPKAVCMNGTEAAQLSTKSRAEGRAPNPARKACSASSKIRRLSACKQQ

[5] = biological target: T3, Discoidin domain-containing receptor 2 (Homo sapiens) (UniProt Q16832); experiment: Inhibition of human recombinant DDR2 at 40 nM related to control ULK1
T3 sequence (whole entry): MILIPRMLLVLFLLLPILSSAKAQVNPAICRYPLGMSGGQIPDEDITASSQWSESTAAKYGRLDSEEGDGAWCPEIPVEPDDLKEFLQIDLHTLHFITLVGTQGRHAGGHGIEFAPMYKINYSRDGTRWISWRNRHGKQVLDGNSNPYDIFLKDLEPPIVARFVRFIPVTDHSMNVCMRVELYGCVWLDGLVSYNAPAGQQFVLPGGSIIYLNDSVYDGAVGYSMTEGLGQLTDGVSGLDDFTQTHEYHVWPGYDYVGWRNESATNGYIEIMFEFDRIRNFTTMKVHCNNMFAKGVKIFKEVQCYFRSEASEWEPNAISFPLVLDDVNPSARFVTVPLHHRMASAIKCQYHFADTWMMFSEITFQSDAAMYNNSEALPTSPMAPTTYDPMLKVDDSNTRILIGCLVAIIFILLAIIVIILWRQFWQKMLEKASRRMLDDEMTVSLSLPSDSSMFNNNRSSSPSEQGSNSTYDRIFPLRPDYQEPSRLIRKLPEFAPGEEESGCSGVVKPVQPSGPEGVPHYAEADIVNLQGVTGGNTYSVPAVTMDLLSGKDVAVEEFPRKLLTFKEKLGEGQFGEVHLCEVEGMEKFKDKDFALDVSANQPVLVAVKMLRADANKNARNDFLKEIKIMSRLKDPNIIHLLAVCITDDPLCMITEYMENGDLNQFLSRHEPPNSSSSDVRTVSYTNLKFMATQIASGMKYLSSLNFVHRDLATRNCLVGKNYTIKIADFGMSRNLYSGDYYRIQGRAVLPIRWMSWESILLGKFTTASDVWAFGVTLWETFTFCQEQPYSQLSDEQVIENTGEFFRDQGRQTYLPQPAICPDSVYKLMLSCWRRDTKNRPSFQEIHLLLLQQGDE

[6] = biological target: Tyrosine-protein kinase HCK (Homo sapiens) (UniProt P08631); experiment: Inhibition of human recombinant HCK at 40 nM related to control ULK1
[7] = biological target: Serine/threonine-protein kinase mTOR (Homo sapiens) (UniProt P42345); experiment: Inhibition of human recombinant FRAP at 40 nM in presence of ATP by radiometric assay relative to control

Myosin light chain kinase, smooth muscle (Homo sapiens), sequence (Q15746 whole entry): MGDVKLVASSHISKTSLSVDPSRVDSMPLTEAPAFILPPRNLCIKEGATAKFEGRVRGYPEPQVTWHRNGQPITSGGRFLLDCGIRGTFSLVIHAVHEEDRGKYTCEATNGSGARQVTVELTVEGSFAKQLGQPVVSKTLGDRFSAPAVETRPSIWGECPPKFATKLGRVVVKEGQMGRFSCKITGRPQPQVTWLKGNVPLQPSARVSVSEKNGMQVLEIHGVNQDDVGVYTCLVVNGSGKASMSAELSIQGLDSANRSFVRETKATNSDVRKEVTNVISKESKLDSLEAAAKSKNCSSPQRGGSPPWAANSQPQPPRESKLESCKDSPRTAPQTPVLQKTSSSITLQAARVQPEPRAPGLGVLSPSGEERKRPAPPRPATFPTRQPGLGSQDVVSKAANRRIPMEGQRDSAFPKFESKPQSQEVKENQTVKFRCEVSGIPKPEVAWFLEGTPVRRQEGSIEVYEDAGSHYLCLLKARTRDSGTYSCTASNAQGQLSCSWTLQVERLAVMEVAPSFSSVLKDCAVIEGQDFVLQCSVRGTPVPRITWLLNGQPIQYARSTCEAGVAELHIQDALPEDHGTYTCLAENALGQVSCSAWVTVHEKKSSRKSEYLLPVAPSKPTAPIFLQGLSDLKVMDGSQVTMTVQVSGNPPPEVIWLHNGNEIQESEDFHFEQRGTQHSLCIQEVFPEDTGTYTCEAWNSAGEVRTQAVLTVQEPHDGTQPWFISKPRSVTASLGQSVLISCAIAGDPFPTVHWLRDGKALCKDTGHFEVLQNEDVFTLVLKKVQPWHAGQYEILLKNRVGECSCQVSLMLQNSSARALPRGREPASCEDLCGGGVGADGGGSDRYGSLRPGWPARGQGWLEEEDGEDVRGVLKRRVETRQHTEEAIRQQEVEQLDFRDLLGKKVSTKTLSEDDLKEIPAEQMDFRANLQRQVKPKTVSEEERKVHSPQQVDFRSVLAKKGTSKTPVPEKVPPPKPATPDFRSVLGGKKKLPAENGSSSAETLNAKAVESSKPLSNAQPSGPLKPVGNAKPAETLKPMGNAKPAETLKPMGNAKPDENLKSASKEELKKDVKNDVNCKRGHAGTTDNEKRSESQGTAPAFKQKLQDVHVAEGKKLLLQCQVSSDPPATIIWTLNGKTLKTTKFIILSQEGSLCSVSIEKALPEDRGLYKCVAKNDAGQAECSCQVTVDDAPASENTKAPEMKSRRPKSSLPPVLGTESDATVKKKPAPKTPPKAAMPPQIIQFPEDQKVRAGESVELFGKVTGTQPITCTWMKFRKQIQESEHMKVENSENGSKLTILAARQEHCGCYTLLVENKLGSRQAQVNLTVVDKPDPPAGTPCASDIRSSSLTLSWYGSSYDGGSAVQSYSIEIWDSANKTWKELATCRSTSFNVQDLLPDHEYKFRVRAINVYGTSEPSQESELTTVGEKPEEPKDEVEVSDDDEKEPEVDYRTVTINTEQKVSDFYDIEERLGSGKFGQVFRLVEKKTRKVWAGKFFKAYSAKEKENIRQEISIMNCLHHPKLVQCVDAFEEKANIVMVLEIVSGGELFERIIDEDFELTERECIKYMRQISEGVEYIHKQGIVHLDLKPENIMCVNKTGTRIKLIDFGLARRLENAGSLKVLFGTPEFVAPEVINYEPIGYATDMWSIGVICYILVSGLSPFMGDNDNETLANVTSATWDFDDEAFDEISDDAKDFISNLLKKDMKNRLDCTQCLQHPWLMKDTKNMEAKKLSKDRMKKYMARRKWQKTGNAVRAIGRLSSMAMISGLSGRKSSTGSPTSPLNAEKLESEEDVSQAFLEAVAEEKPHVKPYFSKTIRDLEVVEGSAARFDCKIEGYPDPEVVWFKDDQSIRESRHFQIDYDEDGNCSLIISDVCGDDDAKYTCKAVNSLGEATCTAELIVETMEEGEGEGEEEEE
SRSF protein kinase 3 (Homo sapiens), sequence (Q9UPE1 whole entry): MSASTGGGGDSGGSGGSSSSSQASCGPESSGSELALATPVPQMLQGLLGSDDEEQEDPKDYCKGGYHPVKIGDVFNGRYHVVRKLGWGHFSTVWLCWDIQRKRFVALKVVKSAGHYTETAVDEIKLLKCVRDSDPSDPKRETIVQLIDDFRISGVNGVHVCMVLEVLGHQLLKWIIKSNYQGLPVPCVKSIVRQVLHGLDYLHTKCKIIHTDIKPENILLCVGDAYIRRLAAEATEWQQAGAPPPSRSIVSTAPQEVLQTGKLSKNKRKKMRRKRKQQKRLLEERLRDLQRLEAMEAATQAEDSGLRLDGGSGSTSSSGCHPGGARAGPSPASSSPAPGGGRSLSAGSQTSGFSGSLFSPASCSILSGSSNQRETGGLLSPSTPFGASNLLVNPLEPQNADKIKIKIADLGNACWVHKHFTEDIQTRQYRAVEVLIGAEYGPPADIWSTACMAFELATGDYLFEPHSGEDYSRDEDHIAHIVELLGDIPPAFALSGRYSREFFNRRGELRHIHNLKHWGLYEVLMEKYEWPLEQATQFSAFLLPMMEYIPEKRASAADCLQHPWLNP
Tyrosine-protein kinase HCK (Homo sapiens), sequence (P08631 2-526 limits assumed): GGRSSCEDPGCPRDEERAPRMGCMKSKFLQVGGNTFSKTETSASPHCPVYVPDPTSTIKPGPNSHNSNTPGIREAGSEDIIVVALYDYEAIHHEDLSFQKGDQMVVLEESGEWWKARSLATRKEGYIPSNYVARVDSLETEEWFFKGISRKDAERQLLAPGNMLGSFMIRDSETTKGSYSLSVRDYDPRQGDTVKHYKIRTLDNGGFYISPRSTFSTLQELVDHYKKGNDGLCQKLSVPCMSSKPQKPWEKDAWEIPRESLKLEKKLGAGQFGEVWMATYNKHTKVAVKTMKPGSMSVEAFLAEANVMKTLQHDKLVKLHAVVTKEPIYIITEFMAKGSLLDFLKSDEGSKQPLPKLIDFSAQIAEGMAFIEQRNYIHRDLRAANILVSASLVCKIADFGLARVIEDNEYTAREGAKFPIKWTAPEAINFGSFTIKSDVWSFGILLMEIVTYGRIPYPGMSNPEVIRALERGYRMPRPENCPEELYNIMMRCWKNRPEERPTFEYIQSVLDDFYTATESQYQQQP

Q: For CNC(=O)c1ccccc1Oc1nc(Nc2cc(OC)c(OC)c(OC)c2)ncc1Br, which inhibition [1] is on record?
A: Its inhibition is 0%.

Q: What about the inhibition [2] of the same molecule?
A: Its inhibition is 15%.

Q: Which inhibition [3] does the source give for CC(C)[C@H](NC(=O)c1cc(-c2cnn3cc(-c4ccc(OCCN5CCCCC5)cc4)cnc23)cs1)C(F)(F)F here?
A: Its inhibition is 0%.

Q: And the inhibition [4]?
A: The inhibition was 0%.

Q: Which results are given for O=C(N[C@@H](C1CC1)C(F)(F)F)c1cc(-c2cnn3cc(-c4ccc(F)cc4)cnc23)cs1?
A: fold change (FC) [5]: 0; fold change (FC) [6]: 0; inhibition [7]: 0%
